Reference: US11839214B2, “Fungicidal mixture comprising substituted pyridines” (BASF SE, priority 2017, dated 2023)

Key:
Type in all cases: cell-based
Pyricularia oryzae = assay: microbe, parasite or virus in culture
Sclerotinia sclerotiorum = assay: Activity against Sclerotinia sclerotiorum in the microtiterplate test; settings: single active compound
Septoria tritici = assay: Activity against leaf blotch on wheat caused by Septoria tritici (microtiterplate test); settings: single active; for inhibition of growth at 1 ppm / inhibition of growth at 4 ppm / inhibition of growth at 16 ppm / inhibition of growth at 0.25 ppm / inhibition of growth at 0.063 ppm: Zymoseptoria tritici, 168 h, read-out: Observed efficacy
Botrytis cinerea = assay: Activity against the grey mold Botrytis cinerea in the microtiterplate test; settings: single active compound; for inhibition of growth at 0.25 ppm / inhibition of growth at 1 ppm / inhibition of growth at 4 ppm / inhibition of growth at 16 ppm: Botrytis cinerea, 168 h, read-out: Observed efficacy
[1] = Pyricularia oryzae, 168 h, read-out: Observed efficacy
[2] = Sclerotinia sclerotiorum, 168 h, read-out: Observed efficacy
[3] = Sclerotinia sclerotiorum, 168 h, 4 ppm, read-out: Observed efficacy

| Compound | inhibition of growth at 0.25 ppm (Pyricularia oryzae; [1]) | inhibition of growth at 1 ppm (Pyricularia oryzae; [1]) | inhibition of growth at 4 ppm (Pyricularia oryzae; [1]) | inhibition of growth at 1 ppm (Sclerotinia sclerotiorum; [2]) | inhibition of growth at 4 ppm (Sclerotinia sclerotiorum; [3]) | inhibition of growth at 1 ppm (Septoria tritici; 1 ppm) | inhibition of growth at 4 ppm (Septoria tritici) | inhibition of growth at 16 ppm (Septoria tritici) | inhibition of growth at 1 ppm (Botrytis cinerea; 1 ppm) | inhibition of growth at 4 ppm (Botrytis cinerea) | inhibition of growth at 16 ppm (Botrytis cinerea) | inhibition of growth at 0.25 ppm (Septoria tritici) | also measured |
| --- | --- | --- | --- | --- | --- | --- | --- | --- | --- | --- | --- | --- | --- |
| Cc1cc(C2=NC(C)(C)C(F)(F)c3ccccc32)cnc1C [Compound 1-1] | 23% | 24% | 53% | 7% | 10% | 9% | 18% | 37% | 13% | 16% | 19% |  | inhibition of growth at 0.25 ppm (Sclerotinia sclerotiorum; Sclerotinia sclerotiorum, 168 h, 0.25 ppm, read-out: Observed efficacy): 7%; inhibition of growth at 16 ppm (Sclerotinia sclerotiorum; Sclerotinia sclerotiorum, 168 h, 16 ppm, read-out: Observed efficacy): 32%; inhibition of growth at 0.25 ppm (Botrytis cinerea): 13% |
| Cc1cc(C2=NC(C)(C)C(F)(F)c3ccccc32)cnc1C(F)F [Compound 1-2] | 20% | 32% |  |  | 16% | 6% | 29% |  | 15% | 19% | 31% | 12% | inhibition of growth at 0.063 ppm (Pyricularia oryzae; [1]): 14% |
| Cc1ncc(C2=NC(C)(C)C(F)(F)c3ccccc32)cc1CF [Compound 1-3] |  | 26% | 52% | 3% | 8% | 9% | 13% | 34% | 6% | 9% | 19% | 13% | inhibition of growth at 0.025 ppm (Pyricularia oryzae; [1]): 20%; inhibition of growth at 0.063 ppm (Septoria tritici): 11% |
| N#Cc1sc2c(=O)c3ccccc3c(=O)c=2sc1C#N [Dithianon, dithianon] | 36% |  |  | 36% |  |  |  |  |  |  |  | 82% | inhibition of growth at 0.063 ppm (Pyricularia oryzae; [1]): 14%; inhibition of growth at 0.063 ppm (Septoria tritici): 22%; inhibition of growth at 0.25 ppm (Botrytis cinerea): 4% |
| CC(C)O/N=C(/CNC(=O)c1cn(C)nc1C(F)F)c1ncc(C#CC2CC2)cc1Cl [Pyrapropyon, pyrapropoyne] |  |  | 1% |  | 55% | 42% |  |  |  | 35% | 71% |  | inhibition of growth at 16 ppm (Pyricularia oryzae; [1]): 4% |
| Cc1cc(C)nc(Nc2ccccc2)n1 [Pyrimethanil, pyrimethanil] |  |  |  | 15% | 21% | 6% |  | 21% | 50% | 72% |  |  |  |
| CC1(C)N=C(c2cnc3ccccc3c2)c2ccccc2C1(F)F [Quinofumelin, quinofumelin] |  |  |  |  |  |  |  |  |  |  |  |  | Observed efficacy (Pyricularia oryzae; single active compound, 1 ppm): 34%; Observed efficacy (Sclerotinia sclerotiorum; 4 ppm): 65%; Observed efficacy (Septoria tritici; 1 ppm): 41%; Observed efficacy (Botrytis cinerea; 1 ppm): 30% |
